Assays:
Serine protease 1 = Serine protease 1 (Homo sapiens, UniProt P07477)
Description: Inhibitory activity against trypsin

Coagulation factor X = Coagulation factor X (Homo sapiens, UniProt P00742); assay: Inhibitory activity against coagulation factor X
Sequence of Coagulation factor X (P00742 41-179 limits assumed): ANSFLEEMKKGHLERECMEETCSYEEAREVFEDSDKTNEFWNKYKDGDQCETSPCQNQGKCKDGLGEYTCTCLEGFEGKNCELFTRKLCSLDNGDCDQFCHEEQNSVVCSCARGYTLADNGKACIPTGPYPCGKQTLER
Sequence of Coagulation factor X (P00742 235-488 limits assumed): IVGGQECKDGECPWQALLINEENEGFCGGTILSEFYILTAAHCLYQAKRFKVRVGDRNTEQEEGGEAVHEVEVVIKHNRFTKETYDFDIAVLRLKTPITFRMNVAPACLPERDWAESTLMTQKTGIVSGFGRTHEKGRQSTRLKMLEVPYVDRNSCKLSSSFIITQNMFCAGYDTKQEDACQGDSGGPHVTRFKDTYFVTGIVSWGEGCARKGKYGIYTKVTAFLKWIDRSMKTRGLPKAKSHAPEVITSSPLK

Sequence of Serine protease 1 (P07477 whole entry): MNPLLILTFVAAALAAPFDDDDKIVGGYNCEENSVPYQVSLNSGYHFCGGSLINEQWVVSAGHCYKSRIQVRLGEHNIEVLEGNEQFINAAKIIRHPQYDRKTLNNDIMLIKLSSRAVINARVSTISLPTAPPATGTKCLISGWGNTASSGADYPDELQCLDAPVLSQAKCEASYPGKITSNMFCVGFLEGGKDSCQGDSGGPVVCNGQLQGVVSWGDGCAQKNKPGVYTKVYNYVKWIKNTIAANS

## N=C(N)NCCC[C@H](NC(=O)Cn1c(Cc2ccccc2)c(Cl)nc(NCCc2ccccc2)c1=O)C(=O)c1nccs1
Serine protease 1
  IC50: 470 nM

## CC(C)Nc1nc(Cl)c(-c2cc(N)cc(C(=O)O)c2)n(CC(=O)NCc2ccc(C(=N)N)cc2)c1=O
Coagulation factor X
  IC50: > 100000 nM
Serine protease 1
  IC50: 64 nM

## N=C(N)c1ccc(CNC(=O)Cn2c(-c3cccc(N)c3)c(Cl)nc(NC3CCC3)c2=O)cc1
Coagulation factor X
  IC50: > 100000 nM
Serine protease 1
  IC50: 32 nM

## N=C(N)NCCC[C@H](NC(=O)Cn1c(-c2ccccc2)c(Cl)nc(NCCc2ccccc2)c1=O)C(=O)c1nccs1
Coagulation factor X
  IC50: 1410 nM
Serine protease 1
  IC50: 420 nM

Source: ChEMBL document CHEMBL1136103, “Structure-based drug design of pyrazinone antithrombotics as selective inhibitors of the tissue factor VIIa complex” (Bioorg Med Chem Lett, 2003)
